Measurements: patent US9085582B2, “Benzotriazolodiazepine compounds inhibitors of bromodomains” (GlaxoSmithKline LLC, priority 2010, dated 2015)

Test system: IL-6
Experiment: Measurement of LPS induced IL-6 secretion from whole blood
Assay type: cell-based
Settings: LPS 200 ng/ml stimulated whole blood, 24 hours, IL-6 by immunoassay
Experimental: Measurement of LPS Induced IL-6 Secretion from Whole Blood
Activation of monocytic cells by agonists of toll-like receptors such as bacterial lipopolysaccharide (LPS) results in production of key inflammatory mediators including IL-6. Such pathways are widely considered to be central to the pathophysiology of a range of auto-immune and inflammatory disorders.
Compounds to be tested are diluted to give a range of appropriate concentrations of which 1 ul of the diluted stocks is added to a 96 well plate. Following addition of whole blood (130 ul) the plates are incubated at 37 degrees (5% CO2) for 30 min before the addition of 10 ul of 2.8 ug/ml LPS, diluted in complete RPMI 1640 (final concentration=200 ng/ml), to give a total volume of 140 ul per well. After further incubation for 24 hours at 37 degrees, 140 ul of PBS are added to each well. The plates are sealed, shaken for 10 minutes and then centrifuged (2500 rpm×10 min). 100 ul of the supernatant are removed and IL-6 levels assayed by immunoassay (typically by MesoScale Discovery technology) either immediately or following storage at −20 degrees. Concentration response curves for each compound was generated from the data and an IC50 value was calculated

| SMILES | IC50 |
| --- | --- |
| CCNC(=O)C[C@@H]1N=C(c2ccc(Cl)cc2)c2cc(-c3ccccc3)ccc2-n2c(C)nnc21 [Example 1, 2-[(4S)-6-(4-Chlorophenyl)-1-methyl-8-phenyl-4H-[1,2,4]triazolo[4,3-a][1,4]benzodiazepin-4-yl]-N-ethylacetamide] | ≤ 3.16 µM |
| CCNC(=O)C[C@@H]1N=C(c2ccc(Cl)cc2)c2cc(-c3ccc(OC)cc3)ccc2-n2c(C)nnc21 [Example 3, 2-{(4S)-6-(4-Chlorophenyl)-1-methyl-8-[4-(methyloxy)phenyl]-4H-[1,2,4]triazolo[4,3-a][1,4]benzodiazepin-4-yl}-N-ethylacetamide] | ≤ 3.16 µM |
| CCNC(=O)C[C@@H]1N=C(c2ccc(Cl)cc2)c2cc(-c3ccn[nH]3)ccc2-n2c(C)nnc21 [Example 4, 2-[(4S)-6-(4-Chlorophenyl)-1-methyl-8-(1H-pyrazol-5-yl)-4H-[1,2,4]triazolo[4,3-a][1,4]benzodiazepin-4-yl]-N-ethylacetamide] | ≤ 3.16 µM |
| CCNC(=O)C[C@@H]1N=C(c2ccc(Cl)cc2)c2cc(-c3cn[nH]c3)ccc2-n2c(C)nnc21 [Example 5, 2-[(4S)-6-(4-Chlorophenyl)-1-methyl-8-(1H-pyrazol-4-yl)-4H-[1,2,4]triazolo[4,3-a][1,4]benzodiazepin-4-yl]-N-ethylacetamide] | ≤ 3.16 µM |
| CCNC(=O)C[C@@H]1N=C(c2ccc(Cl)cc2)c2cc(-c3ccc(CN4CCCC4)cc3)ccc2-n2c(C)nnc21 [Example 13, (S)-2-(6-(4-Chlorophenyl)-1-methyl-8-(4-(pyrrolidin-1-ylmethyl)phenyl)-4H-benzo[f][1,2,4]triazolo[4,3-a][1,4]diazepin-4-yl)-N-ethylacetamide] | ≤ 3.16 µM |
